# According to US20210196779A1, “Compositions and Methods for Treating Steroid Hormone-Related Diseases or Disorders” (YALE UNIVERSITY, priority 2018, published 2021):
# Columns and labels:
# [1] = system: histone 2AX serine 139 phosphorylation; experiment: Western blot, MCF7 cells, H2AX-ser139; type: cell-based; conditions: presence or absence of E2, 24 h
# Experimental: Western blot analysis was used to determine the protein expression using protein specific antibodies.
# Total cell lysis was conducted using 2×SDS sample buffer (62.5 mM Tris-HCl, 2% SDS, 10% glycerol, 50 mM DTT, and 0.05% bromophenol blue). The samples were sonicated for 10 s to shear DNA. Cell nuclei were isolated using Tris buffer saline with 0.4% NP40. Cell extracts were then electrophoresed through 10% SDS-polyacrylamide gels and transferred to 0.2 μm nitrocellulose membranes (Bio-Rad Laboratories, Hercules, Calif.) with a Miniprotein II transferring apparatus (Bio-Rad). The membranes were blocked and probed in TBS-T buffer (1×TBS buffer, 0.2% Tween 20) containing 5% non-fat milk. Monoclonal rabbit anti-AR (1:5000), was used to detect androgen receptor (Abcam #133273), Glucocorticoid Receptor (D8H2) XP® Rabbit mAb #3660, ERa Antibody (F-10): sc-8002, BRD4 (E2A7X) Rabbit mAb #13440, Brd2 (D89B4) Rabbit mAb #5848, PARP (46D11) Rabbit mAb #9532, Acetyl-Histone H3 (Lys27) (D5E4) XP® Rabbit mAb #8173 and a monoclonal actin antibody diluted 1:2500 (Sigma, St. Louis, Mo.) was used to detect β-actin as the internal control to confirm equal protein loading. […] Enhanced chemiluminescence reagents (Perkin-Elmer Life Science Products, Boston, Mass.) were used to visualize the immunoreactive bands and the densities of protein bands were scanned analyzed using ImageJ software from the NIH.
# Brd2 = experiment: Western blot, MCF7 and 22RV1 cells, Brd2; type: cell-based; conditions: MCF7 (with or without E2) or 22RV1 (with or without DHT), 24 h
# Experimental: (§1) Western blot analysis was used to determine the protein expression using protein specific antibodies. β-actin or histone 3 was used to normalize protein loading.
# (§2) Total cell lysis was conducted using 2×SDS sample buffer (62.5 mM Tris-HCl, 2% SDS, 10% glycerol, 50 mM DTT, and 0.05% bromophenol blue). The samples were sonicated for 10 s to shear DNA. Cell nuclei were isolated using Tris buffer saline with 0.4% NP40. Cell extracts were then electrophoresed through 10% SDS-polyacrylamide gels and transferred to 0.2 μm nitrocellulose membranes (Bio-Rad Laboratories, Hercules, Calif.) with a Miniprotein II transferring apparatus (Bio-Rad). The membranes were blocked and probed in TBS-T buffer (1×TBS buffer, 0.2% Tween 20) containing 5% non-fat milk. […] Enhanced chemiluminescence reagents (Perkin-Elmer Life Science Products, Boston, Mass.) were used to visualize the immunoreactive bands and the densities of protein bands were scanned analyzed using ImageJ software from the NIH.
# H3K14 acetylation = experiment: Western blot, MCF7 and 22RV1 cells, H3K14 acetylation; type: cell-based; conditions: MCF7 and 22RV1 cells (FIGS. 11A-11B), 24 h
# Experimental: as §1, §2
# T4D cells = experiment: Cell growth assay, T4D breast cancer cells; type: cell-based; conditions: under E2 stimulation, 4 days
# Experimental: MCF7, T47D, MDA-MB-453, MDA-MB-231 breast cancer cells were grown in corning T75 cell culture flask in RPMI1640 medium supplemented with 5% FBS, 50 μg/ml Kanamycin in a 37° C., 5% CO2 incubator.
# 20,000 cells in 1 ml of medium (phenol red free RPMI1640, 5% charcoal-dialysis FBS, 50 μg/ml Kanamyacin) were seeded per well of a 24-well plate and incubated in a 37° C. incubator with 5% CO2 overnight. Different concentrations of herbal extract were added to each well in order to have final concentrations from 50 μg/ml to 500 μg/ml. For prostate cancer cells, DHT (25 nM) was used to stimulate androgen receptor activity. For glucocorticoid receptor overexpressed LNCaP cells, dexamethasone (50 nM) was used to stimulate glucocorticoid receptor activity. For all breast cancer cells, E2 (10 nM) was used to stimulate ER activity. Control medium without any steroid hormone was used as a control setting. After 4 days of incubation, cells were fixed and stained for 2 h with 0.5% methylene blue in 50% ethanol, followed by washing with tap water to remove unbound dye. Plates were air dried and then cells were dissolved in 1% sarkosyl (sodium lauroyl sarcosinate) by shaking at room temperature for 3 h. Cell growth was quantified based on the amount of methylene blue adsorbed by the cells as measured by a spectrophotometer (Molecular Devices) at 595 nm. […]
# [2] = Body weight of nude mice during the treatment; type: in vivo; conditions: equivalent dose to Y1830 (2.2 mg/kg, PO, B.I.D.), 11 days
# Experimental: 22RV1 prostate cancer cells 5×10^6 cells in 100 μl Matrigel were injected subcutaneously into 10 week old male NCR nude mice. When 22RV1 tumor reached 5 mm×5 mm, mice were orally fed with Y1830 (water extract, 500 mg/kg, PO, B.I.D, N5) and RGA (or the fraction comprising RGA) (equivalent dose to Y1830: 2.2 mg/kg, PO, B.I.D.) for 11 days. Tumor volume was estimated by using the formula length×width^2/2.
# When tumors reached 5 mm×5 mm, Y1830 water extract (500 mg/kg, BID, PO) and RGA (or the fraction comprising RGA) at equivalent dose to Y1830 were used to treat animals for 11 days. […] Therefore, it is further concluded that compounds other than molecules in RGA containing fraction of Y1830 total extract may also have anti-tumor activity or prevent tumor to develop drug resistant.
smiles,measurement,setting,value
"CC(=O)OCC1OC(Oc2cc3c(c(O)c2C)C(=O)c2ccc(O)cc2C3=O)C(OC2OC(C)C(O)C(O)C2O)C(O)C1O [RGA, 1,3,6-Trihydroxy-2-methyl-9,10-anthracenedione 3-O-[α-L-Rhamnopyranosyl-(1→2)-6-O-acetyl-β-D-glucopyranoside]]",histone 2AX serine 139 phosphorylation,[1],triggered
same,Brd2 protein expression,Brd2,decreased
same,H3K14 acetylation,H3K14 acetylation,did not have a large impact
same,inhibitory effect on T4D cell growth,T4D cells,strong inhibitory effect
same,animal body weight loss,[2],did not cause animal body weight loss
